These results are taken from patent US20120083464A1, “NEUROPROTECTIVE PROPERTIES OF 5'-METHYLTHIOADENOSINE” (priority 2009, published 2012).

Data set [1] relates to RN22 cells. Briefly: Copper sulphate stress in RN22 cells, ROS levels. Particulars: copper sulphate 150 μM, different time periods. It is filed as cell-based, rat. Here is the method: (§1) RN22 cells were maintained at 37° C. in DMEM medium supplemented with 10% of fetal bovine serum and penicillin/streptomycine. The assays against stress with copper sulphate were conducted using 24-well plates in DMEM medium without serum. After allowing cell adherence for three days, NGF (100 ng/ml) or MTA was added to different concentrations half an hour before the copper sulphate (150 μM). After twenty-four hours, cell viability was quantified by MTT assay and ROS production was quantified by fluorescence. Assays against stress with hydrogen peroxide were conducted in the same way as the foregoing, using 100 μM hydrogen peroxide as a stress-producing agent.
We determined the quantity of ROS produced by the cells after stress with and without treatment. 2′,7′- dichlorodihydrofluorescein (DCFH) is generally used to measure oxidative stress in cells. The cells were incubated with DCFH-DA (10 μM) at 37° C. for thirty minutes. After incubation, the cells were washed twice with PBS and lysed by adding 10 mM Tris-HCL buffer containing 0.5% of Tween 20. The homogenates were then centrifuged at 10,000 g for ten minutes to separate the cell residue and […] fluorescence in the supernatant was measured using a fluorometer (excitation wavelength 492-495 nm, emission wavelength 517-527 nm) (Invitrogen).

The test system of data set [2] is oligodendrocytes derived from the optic nerve. Briefly: MTA toxicity profile in cultured oligodendrocytes (calcein-AM). Particulars: MTA 1 μM-3 mM for 24 hours. It counts as cell-based. Here is the method:
Primary cultures of oligodendrocytes derived from optic nerves of 12-d-old Sprague Dawley rats were obtained as described previously (Barres et al., 1992). Cells were seeded into 24-well plates bearing 12-mm-diameter coverslips coated with poly-D-lysine (10 μg/ml) at a density of 5×10^3 cells per well. Cells were maintained at 37° C. and 5% CO2 in a chemically defined medium (Barres et al., 1992, Cell 70:31-46). After 2-4 d in vitro, cultures were composed of at least 98% O4/galactocerebroside-positive (O4/Ga1C_) cells; the majority of the remaining cells were stained with antibodies to glial fibrillary acidic protein (GFAP). No A2B5+ or microglial cells were detected in these cultures (Alberdi et al., 2002, Neurobiol Dis 9:234-243).
Cell toxicity and viability assays were performed as described previously (Sánchez-Gómez and Matute, 1999, Neurobiol Dis 6:475-485). For evaluating the MTA toxicity, cells at 2-4 d in culture were exposed for 24 hours to that drug and cell viability assessed using calcein-AM (Invitrogen). […] Twenty-four hours after drug application, cell viability was assessed using calcein-AM (Invitrogen). The total number of surviving cells on each coverslip emitting calcein fluorescence was counted, and results were expressed as percentage of cell death versus control. Results were expressed as the mean±SEM of at least three independent experiments performed in duplicate. […]

Data set [3] relates to MAPK, p38/SAPK and STAT3 pathways. Briefly: Intracellular phosphorylation in PC12 cells (Luminex). It is filed as cell-based, rat. The note with it: PC12 cells after MTA-induced differentiation, four days. The text has this:
The phosphorylation of different intracellular proteins was detected using Luminex technology. After the neurite differentiation assay the PC12 cells were received in lysis buffer and tested using different antibodies: total Akt/PKB, total p38/SAPK, total STAT3, total ERK/MAPK, total P70 S6 Kinase, phosphorolyated Akt/PKB (Ser473), phosphorylated Akt/PKB (Thr 308), phosphorylated p38/SAPK (Thr180/Tyr182), phosphorilyated STAT 3 (Tyr705/Ser 727), phosphorylated ERK/MAPK (Thr185/Tyr187) and phosphorylated P70 S6 Kinase (Thr412).

The subject of data set [4] is RN22 cells. Briefly: Hydrogen peroxide stress in RN22 cells, MTT cell viability. It counts as cell-based, rat. The note with it: hydrogen peroxide 100 μM, twenty-four hours; MTA 25 μM-3 mM. Here is the method: as §1
We determined the quantity of MTT (Sigma) that is reduced to insoluble formazan. After separating the medium, the water-insoluble formazan is solubilised in DMSO and the dissolved material is measured in a spectrophotometer at 570 nm.

The subject of data set [5] is mixed cultures of neurons and astrocytes from the cerebral cortex. Briefly: Cell toxicity and viability assays (calcein-AM, LDH) in neuron-astrocyte co-cultures. It is filed as cell-based. Particulars: MTA 10 μM-1 mM for 24 hours. The text has this: Primary neuron cultures were obtained from the cortical lobes of E18 Sprague-Dawley rat embryos according to previously described procedures (Cheung et al., 1998, Neuropharmacology 37:1419-1429). The cells were resuspended in B27 Neurobasal medium plus 10% FBS and then seeded in 24-well plates at 1-2×10^5 cells per well onto a monolayer of astrocytes which were previously prepared as described earlier (Vallejo-Illarramendi et al., 2005, Glia 50:276-279). One day later, the medium was replaced by B27-supplemented Neurobasal medium and 10% fetal bovine serum, and maintained at 37° C. and 5% CO2. Cultures were used 8-9 days after plating. Cultured neurons and astrocytes were identified using antibodies to microtubule associated protein-2 and glial fibrillary acidic protein, respectively.
Cell death and cell viability in neuron-astrocyte co-cultures was assayed after 24 h of exposure to MTA (10 μM to 1 mM) using lactate dehydrogenase and calcein-AM assays respectively followed by fluorimetry measurements (Synergy-HT). The results are expressed as percentage of viable cells or LDH release versus controls, as the mean±SEM of at least four independent experiments performed in triplicate. […]

“Also recorded” adds a separate entry of the source.

In the case of `CSC[C@H]1O[C@@H](n2cnc3c(N)ncnc32)[C@H](O)[C@@H]1O` [MTA, 5′-methylthioadenosine], the “ROS production under copper sulphate stress” value with RN22 cells [1] was “reduce ROS production”. Moreover, the “MTA concentrations at which significant toxicity was observed (calcein-AM)” value in data set [2] was “above 300 μM”. The “phosphorylation of intracellular proteins: MAPK, p38/SAPK and STAT3 pathways” value in data set [3] was “activation”. In the data set with RN22 cells [4], the “cell viability (MTT) under hydrogen peroxide stress” value was “capable of maintaining cell viability”. Further, in data set [5], the “astrocyte resistance and viability to MTA” value was “resistant and viable”. For the same molecule, the “toxicity (cell viability by calcein fluorescence; cell death by LDH release)” value in data set [5] (neurons in co-culture) is on record as “very low; also recorded: not toxic”.
